Test results published in US9150554B2, “Fused ring inhibitors of hepatitis C” (Presidio Pharmaceuticals, Inc., priority 2009, dated 2015).

These molecules were tested on HCV 1b_Huh-Luc/Neo-ET cell line persistently expressing a bicistronic genotype 1b replicon in Huh 7 cells (assay: HCV replicon assay, luciferase enzyme activity readout). Details: Hepatitis C virus, 72 h incubation, average EC50 range, read-out: Inhibition of HCV genotype 1b.
Assay type: cell-based
Description: Biological activity of the compounds of the invention was determined using an HCV replicon assay. The HCV 1b_Huh-Luc/Neo-ET cell line persistently expressing a bicistronic genotype 1b replicon in Huh 7 cells was obtained from ReBLikon GMBH. This cell line was used to test compound inhibition using luciferase enzyme activity readout as a measurement of compound inhibition of replicon levels.
On Day 1 (the day after plating cells), each compound is added in triplicate to the cells. Plates are incubated for 72 h prior to determining luciferase levels. Enzyme activity was measured using a Bright-Glo Kit (cat. number E2620) manufactured by Promega Corporation. The following equation was used to generate a percent control value for each compound. % Control=(Compound Luciferase Level/Control Luciferase Level)*100
The EC50 value was determined using GraphPad Prism and the following equation: Y=Bottom asymptote+(Top asymptote−Bottom asymptote)/(1+10^((Log EC50−X)*HillSlope))
EC50 values of compounds are determined several times in the replicon assay to generate average EC50 values. […]
`COC(=O)N[C@H](C(=O)N1CCC[C@H]1c1ncc(-c2ccc3c(c2)CCc2cc(-c4cnc([C@@H]5CCCN5C(=O)[C@@H](NC(=O)OC)C(C)C)[nH]4)ccc2O3)[nH]1)C(C)C` [Compound 7] was tested, and the EC50 was under 1 nM. `COC(=O)N[C@@H](C(=O)N1CCC[C@H]1c1ncc(-c2ccc3nc4cc(-c5cnc([C@@H]6CCCN6C(=O)[C@H](NC(=O)OC)c6ccccc6)[nH]5)ccc4nc3c2)[nH]1)c1ccccc1` [Compound 2] was tested, and the EC50 was under 1 nM. `COC(=O)N[C@H](C(=O)N1CCC[C@H]1c1ncc(-c2ccc3c(c2)Cc2cc(F)c(-c4cnc([C@@H]5CCCN5C(=O)[C@@H](NC(=O)OC)[C@@H](C)OC)[nH]4)cc2O3)[nH]1)C1CCOCC1` [Compound 42] gave an EC50 of under 1 nM. Molecule `COC(=O)N[C@H](C(=O)N1CCC[C@H]1c1ncc(-c2ccc3c(c2)Oc2ccc(-c4cnc([C@@H]5CCCN5C(=O)[C@@H](NC(=O)OC)C(C)C)[nH]4)cc2C32CC2)[nH]1)C(C)C` [Compound 26] has an EC50 of under 1 nM. `CC[C@H](C)[C@H](NC(=O)OC)C(=O)N1CCC[C@H]1c1ncc(-c2cc3c(cc2F)Cc2cc(-c4cnc([C@@H]5CCCN5C(=O)[C@H](COC)NC(=O)OC)[nH]4)ccc2O3)[nH]1` [Compound 60] gave an EC50 of under 1 nM. With `COC(=O)N[C@H](C(=O)N1CCC[C@H]1c1ncc(-c2cc3c(cc2F)Cc2cc(-c4cnc([C@@H]5CCCN5C(=O)[C@@H](NC(=O)OC)C5CCOCC5)[nH]4)ccc2O3)[nH]1)C(C)C` [Compound 44] the EC50 was under 1 nM. `COC(=O)N[C@H](C(=O)N1CCC[C@H]1c1ncc(-c2ccc3c(c2)Oc2ccc(-c4cnc([C@@H]5CCCN5C(=O)[C@@H](NC(=O)OC)C(C)C)[nH]4)cc2O3)[nH]1)C(C)C` [Compound 3] showed an EC50 of under 1 nM. `COC(=O)N[C@H](C(=O)N1CCC[C@H]1c1ncc(-c2ccc3c(c2)Oc2ccc(-c4cnc([C@@H]5CCCN5C(=O)[C@@H](NC(=O)OC)C(C)C)[nH]4)cc2C(=O)N3)[nH]1)C(C)C` [Compound 14] showed an EC50 of 10 to 999 nM. Molecule `COC(=O)N[C@H](C(=O)N1CCC[C@H]1c1ncc(-c2ccc3c(c2)Cc2cc(F)c(-c4cnc([C@@H]5CCCN5C(=O)[C@@H](NC(=O)OC)[C@@H](C)OC)[nH]4)cc2O3)[nH]1)[C@@H](C)OC` [Compound 40] has an EC50 of under 1 nM. Molecule `CC(C)(C)OC(=O)N1CCC[C@H]1c1ncc(-c2ccc3c(=O)c4cc(-c5cnc([C@@H]6CCCN6C(=O)OC(C)(C)C)[nH]5)ccc4oc3c2)[nH]1` [Compound 9] has an EC50 of 10 to 999 nM. Work on `COC(=O)N[C@H](C(=O)N1CCC[C@H]1c1ncc(-c2ccc3oc4cc(-c5cnc([C@@H]6CCCN6C(=O)[C@@H](NC(=O)OC)[C@@H](C)OC)[nH]5)c(Cl)cc4c(=O)c3c2)[nH]1)[C@@H](C)OC` [Compound 50] yielded an EC50 of under 1 nM. `COC(=O)N[C@H](C(=O)N1CCC[C@H]1c1ncc(-c2ccc3c(c2)Oc2ccc(-c4cnc([C@@H]5CCCN5C(=O)[C@@H](NC(=O)OC)[C@@H](C)OC)[nH]4)cc2O3)[nH]1)[C@@H](C)OC` [Compound 34] was tested, and the EC50 was under 1 nM. `CC[C@H](C)[C@H](NC(=O)OC)C(=O)N1CCC[C@H]1c1ncc(-c2ccc3c(c2)Cc2cc(F)c(-c4cnc([C@@H]5CCCN5C(=O)[C@@H](NC(=O)OC)[C@@H](C)OC)[nH]4)cc2O3)[nH]1` [Compound 41] gave an EC50 of under 1 nM. In the case of `COC(=O)N[C@H](C(=O)N1CCC[C@H]1c1ncc(-c2ccc3c(c2)Cc2ccc(-c4cnc([C@@H]5CCCN5C(=O)[C@@H](NC(=O)OC)C(C)C)[nH]4)cc2O3)[nH]1)C(C)C` [Compound 6], the EC50 is reported as under 1 nM. `COC(=O)N[C@H](C(=O)N1CSC[C@H]1c1ncc(-c2ccc3c(c2)Oc2ccc(-c4cnc([C@@H]5CSCN5C(=O)[C@@H](NC(=O)OC)C5CCCC5)[nH]4)cc2O3)[nH]1)C1CCCC1` [Compound 66] was tested, and the EC50 was under 1 nM. Work on `COC(=O)N[C@H](C(=O)N1CCC[C@H]1c1ncc(-c2ccc3c(c2)Oc2ccc(-c4cnc([C@@H]5CCCN5C(=O)[C@@H](NC(=O)OC)C5CCOCC5)[nH]4)cc2O3)[nH]1)C1CCOCC1` [Compound 35] yielded an EC50 of under 1 nM. For `COC(=O)N[C@H](C(=O)N1CCC[C@H]1c1ncc(-c2ccc3oc4cc(-c5cnc([C@@H]6CCCN6C(=O)[C@@H](NC(=O)OC)C6CCOCC6)[nH]5)ccc4c(=O)c3c2)[nH]1)C(C)C` [Compound 17], the EC50 was under 1 nM. Molecule `CC[C@H](C)[C@H](NC(=O)OC)C(=O)N1CCC[C@H]1c1ncc(-c2ccc3oc4cc(-c5cnc([C@@H]6CCCN6C(=O)[C@@H](NC(=O)OC)[C@@H](C)CC)[nH]5)c(Cl)cc4c(=O)c3c2)[nH]1` [Compound 51] has an EC50 of under 1 nM. Work on `COC(=O)N[C@H](C(=O)N1CCC[C@H]1c1ncc(-c2ccc3oc4cc(-c5cnc([C@@H]6CCCN6C(=O)[C@H](NC(=O)OC6CCOCC6)c6ccccc6)[nH]5)ccc4c(=O)c3c2)[nH]1)C(C)C` [Compound 21] yielded an EC50 of under 1 nM. `O=C(N[C@@H](C(=O)N1CCC[C@H]1c1ncc(-c2ccc3oc4cc(-c5cnc([C@@H]6CCCN6C(=O)[C@H](NC(=O)OC6CCOCC6)c6ccccc6)[nH]5)c(F)cc4c(=O)c3c2)[nH]1)c1ccccc1)OC1CCOCC1` [Compound 25] was tested, and the EC50 was under 1 nM. `COC(=O)N[C@H](C(=O)N1CCC[C@H]1c1ncc(-c2ccc3oc4cc(-c5cnc([C@@H]6CCCN6C(=O)[C@@H](NC(=O)OC)C6CCOCC6)[nH]5)c(Cl)cc4c(=O)c3c2)[nH]1)C1CCOCC1` [Compound 52] gave an EC50 of under 1 nM. Work on `COC(=O)N[C@H](C(=O)N1CCC[C@H]1c1ncc(-c2ccc3c(c2)CCc2ccc(-c4cnc([C@@H]5CCCN5C(=O)[C@@H](NC(=O)OC)C(C)C)[nH]4)cc2O3)[nH]1)C(C)C` [Compound 12] yielded an EC50 of under 1 nM. Work on `CC[C@H](C)[C@H](NC(=O)OC)C(=O)N1CCC[C@H]1c1ncc(-c2cc3c(cc2F)Cc2cc(-c4cnc([C@@H]5CCCN5C(=O)[C@@H](NC(=O)OC)[C@@H](C)OC)[nH]4)ccc2O3)[nH]1` [Compound 54] yielded an EC50 of under 1 nM. With `COC(=O)N[C@@H](C(=O)N1CCC[C@H]1c1ncc(-c2ccc3c(c2)Cc2cc(-c4cnc([C@@H]5CCCN5C(=O)[C@H](NC(=O)OC)c5ccccc5)[nH]4)ccc2O3)[nH]1)c1ccccc1` [Compound 5] the EC50 was under 1 nM. In the case of `CC[C@H](C)[C@H](NC(=O)OC)C(=O)N1CCC[C@H]1c1ncc(-c2cc3c(cc2F)Cc2cc(-c4cnc([C@@H]5CCCN5C(=O)[C@@H](NC(=O)OC)C5CCOCC5)[nH]4)ccc2O3)[nH]1` [Compound 59], the EC50 is reported as under 1 nM. `COC(=O)N[C@H](C(=O)N1CCC[C@H]1c1ncc(-c2cc3c(cc2F)Cc2cc(-c4cnc([C@@H]5CCCN5C(=O)[C@@H](NC(=O)OC)[C@@H](C)OC)[nH]4)ccc2O3)[nH]1)C(C)C` [Compound 29] was tested, and the EC50 was under 1 nM. In the case of `CC[C@H](C)[C@H](NC(=O)OC)C(=O)N1CCC[C@H]1c1ncc(-c2ccc3c(c2)Cc2ccc(-c4cnc([C@@H]5CCCN5C(=O)[C@@H](NC(=O)OC)[C@@H](C)CC)[nH]4)cc2O3)[nH]1` [Compound 31], the EC50 is reported as under 1 nM. Work on `COC(=O)N[C@H](C(=O)N1CSC[C@H]1c1ncc(-c2ccc3c(c2)Oc2ccc(-c4cnc([C@@H]5CSCN5C(=O)[C@@H](NC(=O)OC)C(C)C)[nH]4)cc2O3)[nH]1)C(C)C` [Compound 36] yielded an EC50 of under 1 nM. Molecule `COC(=O)N[C@H](C(=O)N1CCC[C@H]1c1ncc(-c2ccc3c(c2)Cc2cc(Cl)c(-c4cnc([C@@H]5CCCN5C(=O)[C@@H](NC(=O)OC)C(C)C)[nH]4)cc2O3)[nH]1)C(C)C` [Compound 61] has an EC50 of under 1 nM. In the case of `COC(=O)N[C@H](C(=O)N1CCC[C@H]1c1ncc(-c2ccc3oc4cc(-c5cnc([C@@H]6CCCN6C(=O)[C@@H](NC(=O)OC)C(C)C)[nH]5)c(F)cc4c(=O)c3c2)[nH]1)C(C)C` [Compound 22], the EC50 is reported as under 1 nM. Molecule `COC(=O)N[C@@H](C(=O)N1CCC[C@H]1c1ncc(-c2ccc3oc4cc(-c5cnc([C@@H]6CCCN6C(=O)[C@H](NC(=O)OC)c6ccccc6)[nH]5)c(F)cc4c(=O)c3c2)[nH]1)c1ccccc1` [Compound 24] has an EC50 of under 1 nM. Molecule `COC[C@H](NC(=O)OC)C(=O)N1CCC[C@H]1c1ncc(-c2ccc3c(c2)Cc2cc(F)c(-c4cnc([C@@H]5CCCN5C(=O)[C@@H](NC(=O)OC)C(C)C)[nH]4)cc2O3)[nH]1` [Compound 45] has an EC50 of under 1 nM. `CC[C@H](C)[C@H](NC(=O)OC)C(=O)N1CSC[C@H]1c1ncc(-c2ccc3c(c2)Oc2ccc(-c4cnc([C@@H]5CSCN5C(=O)[C@@H](NC(=O)OC)[C@@H](C)CC)[nH]4)cc2O3)[nH]1` [Compound 67] gave an EC50 of under 1 nM. For `COC(=O)N[C@H](C(=O)N1CCCC[C@H]1c1ncc(-c2ccc3c(c2)Oc2ccc(-c4cnc([C@@H]5CCCCN5C(=O)[C@@H](NC(=O)OC)C(C)C)[nH]4)cc2O3)[nH]1)C(C)C` [Compound 47], the EC50 was under 1 nM. Molecule `COC(=O)N[C@H](C(=O)N1CCC[C@H]1c1ncc(-c2ccc3c(c2)Oc2ccc(-c4cnc([C@@H]5CCCN5C(=O)[C@@H](NC(=O)OC)C5CCCC5)[nH]4)cc2O3)[nH]1)C1CCCC1` [Compound 33] has an EC50 of under 1 nM. With `COC(=O)N[C@H](C(=O)N1CCC[C@H]1c1ncc(-c2ccc3c(c2)Cc2ccc(-c4cnc([C@@H]5CCCN5C(=O)[C@@H](NC(=O)OC)C5CCCC5)[nH]4)cc2O3)[nH]1)C1CCCC1` [Compound 32] the EC50 was under 1 nM. `COC(=O)N[C@H](C(=O)N1CCC[C@H]1c1ncc(-c2ccc3c(=O)c4cc(-c5cnc([C@@H]6CCCN6C(=O)[C@@H](NC(=O)OC)C6CCOCC6)[nH]5)ccc4oc3c2)[nH]1)C(C)C` [Compound 16] showed an EC50 of under 1 nM. For `CC[C@H](C)[C@H](NC(=O)OC)C(=O)N1CCC[C@H]1c1ncc(-c2ccc3c(c2)Cc2cc(F)c(-c4cnc([C@@H]5CCCN5C(=O)[C@@H](NC(=O)OC)[C@@H](C)CC)[nH]4)cc2O3)[nH]1` [Compound 53], the EC50 was under 1 nM. In the case of `COC(=O)N[C@H](C(=O)N1CCC[C@H]1c1ncc(-c2ccc3c(c2)Cc2cc(Cl)c(-c4cnc([C@@H]5CCCN5C(=O)[C@@H](NC(=O)OC)[C@@H](C)OC)[nH]4)cc2O3)[nH]1)[C@@H](C)OC` [Compound 62], the EC50 is reported as under 1 nM.
